Test results: ChEMBL document CHEMBL6074678, “Selectively Antagonizing the NOD1-Mediated Inflammatory Signaling Pathway Mitigates the Gastric Inflammation Induced by Helicobacter pylori Infection” (J Med Chem, 2024)
Active and inactive are the calls of the source. The rule behind the calls is not given here.

Tests used:
[1] = molecular target: T1, Nucleotide-binding oligomerization domain-containing protein 1 (Mus musculus) (UniProt Q8BHB0); test: Antagonist activity at mouse NOD1 expressed in HEK-Blue cells assessed as decrease in SEAP secretion incubated for 3 hrs followed by C12-iE-DAP stimulation for 20 hrs by spectrophotometry; format: cell-based; conditions: HEK-Blue mNOD1, filed as antagonist, time 23.0 hrs
T1 sequence (whole entry): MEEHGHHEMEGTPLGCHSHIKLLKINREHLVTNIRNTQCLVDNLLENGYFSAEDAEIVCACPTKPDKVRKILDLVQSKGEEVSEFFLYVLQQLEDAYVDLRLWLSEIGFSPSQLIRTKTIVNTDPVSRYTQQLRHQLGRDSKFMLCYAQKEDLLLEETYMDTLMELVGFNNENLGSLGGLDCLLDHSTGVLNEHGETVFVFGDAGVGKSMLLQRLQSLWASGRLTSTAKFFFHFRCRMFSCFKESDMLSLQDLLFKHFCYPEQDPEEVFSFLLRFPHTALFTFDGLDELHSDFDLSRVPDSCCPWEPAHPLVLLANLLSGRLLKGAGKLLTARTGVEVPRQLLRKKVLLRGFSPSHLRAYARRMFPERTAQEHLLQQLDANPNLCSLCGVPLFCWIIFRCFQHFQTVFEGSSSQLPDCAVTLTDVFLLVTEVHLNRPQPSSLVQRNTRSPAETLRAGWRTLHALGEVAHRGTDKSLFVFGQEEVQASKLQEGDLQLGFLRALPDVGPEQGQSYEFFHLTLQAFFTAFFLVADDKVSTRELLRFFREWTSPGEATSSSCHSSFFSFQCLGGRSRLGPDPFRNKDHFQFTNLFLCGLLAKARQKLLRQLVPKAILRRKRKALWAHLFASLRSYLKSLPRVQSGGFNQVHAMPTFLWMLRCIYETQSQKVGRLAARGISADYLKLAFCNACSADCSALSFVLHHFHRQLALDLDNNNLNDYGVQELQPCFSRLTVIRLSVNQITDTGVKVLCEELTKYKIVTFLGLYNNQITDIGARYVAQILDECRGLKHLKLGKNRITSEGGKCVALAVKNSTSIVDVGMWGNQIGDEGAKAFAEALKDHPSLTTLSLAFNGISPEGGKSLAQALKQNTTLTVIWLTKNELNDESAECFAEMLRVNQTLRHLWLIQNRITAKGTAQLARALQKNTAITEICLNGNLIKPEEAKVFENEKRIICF

AGS = test: Anti-inflammatory activity in human AGS cells assessed as decrease in CXCL8 mRNA level at 1 to 5 uM pretreated for 1 hr followed by infection with Helicobacter pylori for 2 hrs by RT-qPCR analysis; format: functional, cell-based; conditions: dose 1-5 µM, time 3.0 hrs
[2] = molecular target: T2, Nucleotide-binding oligomerization domain-containing protein 1 (Homo sapiens) (UniProt Q9Y239); test: Antagonist activity at NOD1 in human THP-1 cells assessed as decrease in phosphorylated JNK level at 0.1 to 1 uM incubated for 1 hr followed by C12-iE-DAP stimulation for 30 mins by Western blot analysis; format: cell-based; conditions: filed as antagonist, dose 0.1-1 µM, time 1.5 hrs
T2 sequence (whole entry): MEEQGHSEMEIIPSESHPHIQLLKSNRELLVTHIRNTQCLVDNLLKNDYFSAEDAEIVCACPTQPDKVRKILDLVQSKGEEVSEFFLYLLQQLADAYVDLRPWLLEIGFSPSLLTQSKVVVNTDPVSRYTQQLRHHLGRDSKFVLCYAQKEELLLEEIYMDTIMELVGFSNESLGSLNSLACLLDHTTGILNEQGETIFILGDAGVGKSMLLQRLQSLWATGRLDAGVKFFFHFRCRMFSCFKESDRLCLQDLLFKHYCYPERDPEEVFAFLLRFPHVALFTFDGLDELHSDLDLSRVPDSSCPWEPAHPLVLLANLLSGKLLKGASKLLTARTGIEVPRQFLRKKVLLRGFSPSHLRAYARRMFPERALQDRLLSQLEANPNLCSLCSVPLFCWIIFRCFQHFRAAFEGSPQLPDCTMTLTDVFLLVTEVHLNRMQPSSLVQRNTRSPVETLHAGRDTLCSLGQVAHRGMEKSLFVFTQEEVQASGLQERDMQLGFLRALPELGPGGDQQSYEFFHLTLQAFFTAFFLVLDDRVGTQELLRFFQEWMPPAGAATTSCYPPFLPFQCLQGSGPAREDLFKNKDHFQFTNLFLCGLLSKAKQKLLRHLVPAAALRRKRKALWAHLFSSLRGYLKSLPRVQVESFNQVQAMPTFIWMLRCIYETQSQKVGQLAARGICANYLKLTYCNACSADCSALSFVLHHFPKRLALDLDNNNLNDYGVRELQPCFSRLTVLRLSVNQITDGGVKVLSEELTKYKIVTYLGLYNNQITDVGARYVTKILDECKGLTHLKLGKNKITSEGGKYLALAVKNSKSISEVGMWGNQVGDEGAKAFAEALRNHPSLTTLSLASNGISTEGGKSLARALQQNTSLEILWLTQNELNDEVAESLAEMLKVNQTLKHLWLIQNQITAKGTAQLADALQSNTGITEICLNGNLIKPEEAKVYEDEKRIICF

[3] = MRT (infinity) in C57BL/6 mouse at 2 mg/kg, iv by LC-MS/MS analysis; format: ADME, organism-based; conditions: in vivo
[4] = molecular target: T3, Nucleotide-binding oligomerization domain-containing protein 1 (Homo sapiens, UniProt Q9Y239); test: Antagonist activity at human NOD1 expressed in HEK293 cells assessed as decrease in NF-kappaB activation; format: cell-based
T3 sequence (Q9Y239 whole entry): T2 sequence (whole entry)

[5] = molecular target: T1, Nucleotide-binding oligomerization domain-containing protein 1 (Mus musculus); test: Antagonist activity at NOD1 in mouse BMDM cells assessed as decrease in phosphorylated JNK level at 0.1 to 1 uM incubated for 1 hr followed by C12-iE-DAP stimulation for 30 mins by Western blot analysis; format: cell-based; conditions: filed as antagonist, dose 0.1-1 µM, time 1.5 hrs
Mus musculus = test: Anti-inflammatory activity in C57BL/6 mouse model of Helicobacter pylori-induced gastric inflammation assessed as reduction in IL-6 level in gastric tissue at 50 mg/kg, po pretreated with compound upto 24 hrs followed by infection of Helicobacter pylori measured upto 72 hrs; format: functional, organism-based; conditions: time <= 96.0 hrs

## CS(=O)(=O)c1ccc2nc(Cl)n(-c3ccc(Cl)c(NS(=O)(=O)c4c(F)cccc4F)c3)c(=O)c2c1
[1]
  Activity: Dose-dependent-effect
AGS
  Activity: Active
[2]
  inhibition: Active
[3]
  MRT inf: 2.76 min
[4]
  IC50: 0.8 nM
[5]
  inhibition: Active
Mus musculus
  Activity: Active
